Data on 7 compounds can be found in PubChem BioAssay (NCI).

Assay in all cases: growth of human tumour cells (NCI), 48 h
The subject of experiment [1] is HOP-92 NSCLC.
Experiment [2] relates to DU-145 prostate.
The test system of experiment [3] is IGROV1 ovarian.
Experiment [4] relates to OVCAR-4 ovarian.
The subject of experiment [5] is MDA-MB-435.
For experiment [6], the system named is BT-549 breast.
Experiment [7] deals with RXF 393 renal.
Experiment [8] concerns UO-31 renal.
The test system of experiment [9] is HT29 colon.
Experiment [10] deals with M14 melanoma.

Each structure is given as a SMILES string.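 How tested: cells in 96-well plates exposed to compound for 48 hours at five concentrations. GI50 marks 50% less growth. TGI: total growth inhibition.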 A value given as a limit tells only on which side of the number the result lay.

On to `COC(=O)CCc1c[nH]c2ccc(N(CCCl)CCCl)cc12`, for which the GI50 is 2.24 µM in experiment [1]; 2.27 µM in experiment [2]; 6.45 µM in experiment [3]; 7.71 µM in experiment [4]; 8.98 µM in experiment [5]; 8.52 µM in experiment [6]. The GI50 in experiment [7] was 1.64 µM; in experiment [8], 4.81 µM; in [9], 2.3 µM; in experiment [10], 1.73 µM. Further, the TGI in [1] is 28.6 µM; in experiment [2], greater than 100 µM; in experiment [3], greater than 57.7 µM; in experiment [4] it was 52.2 µM; in experiment [5], 25.9 µM; in [6] it was 41.5 µM. The TGI in [7] is 4.19 µM; in [8] it was greater than 42.6 µM; in [9], 44.7 µM; in experiment [10], 11.5 µM.
As to `CN(C)CCCNC(=O)c1cc(NC(=O)c2cc(NC(=O)CCc3c[nH]c4ccccc34)cn2C)cn1C`, the GI50 in [1] is 72.8 µM; in experiment [2], greater than 100 µM; in [3], greater than 100 µM; in [4] it was greater than 100 µM; in experiment [5] it was greater than 100 µM; in experiment [6], greater than 100 µM. For the same compound, the GI50 in experiment [7], in [8], in experiment [9] and in experiment [10] was greater than 100 µM throughout. Also, the TGI in experiment [1], in experiment [2], in experiment [3], in experiment [4], in experiment [5] and in experiment [6] was greater than 100 µM throughout. In addition, the TGI in [7], in [8], in experiment [9] and in experiment [10] was greater than 100 µM throughout.
Turning to `CC(C)(C)C(=O)c1c(C(F)(F)F)n([O-])c2ccccc2[n+]1=O`, the GI50 in [1] is 0.573 µM; in [2], 0.356 µM; in experiment [3], 0.0505 µM; in [4], 0.6 µM; in experiment [5], 0.606 µM; in [6], 0.428 µM. Also, the GI50 was 0.868 µM in [7], 0.342 µM in experiment [8], 0.368 µM in [9] and 1.45 µM in experiment [10]. Also, the TGI is 1.93 µM in [1]; 0.892 µM in experiment [2]; 0.172 µM in experiment [3]; 2.43 µM in experiment [4]; 1.68 µM in experiment [5]; 1.59 µM in experiment [6]. Besides, the TGI is 2.28 µM in [7], 0.729 µM in experiment [8] and 4.85 µM in experiment [10].
On to `OCc1ccc(-c2ccc(-c3ccc(CO)o3)[se]2)o1`, for which the GI50 was 48.2 µM in experiment [1]; greater than 94 µM in experiment [2]; 9.28 µM in experiment [3]; 35.4 µM in experiment [4]; 42.5 µM in experiment [5]; 46.4 µM in experiment [6]. The GI50 was greater than 100 µM in experiment [7], greater than 95.3 µM in experiment [8], greater than 95 µM in experiment [9] and 57.8 µM in experiment [10]. Further, the TGI in experiment [1], in experiment [2], in experiment [3], in experiment [4], in experiment [5] and in [6] was greater than 100 µM throughout. Besides, the TGI in experiment [7], in experiment [8], in experiment [9] and in experiment [10] was greater than 100 µM in each case.
For the compound `Nc1ccc(C2=NN(c3ccccc3)C(c3ccc(Cl)cc3)C2)cc1` (centres undefined), the GI50 in experiment [1] is 2.61 µM; in experiment [2] it was 3.54 µM; in [3], 2.89 µM; in experiment [4] it was 4.84 µM; in experiment [5] it was 2.51 µM; in [6] it was 2.21 µM. The GI50 in experiment [7] is 1.55 µM; in experiment [8], 1.54 µM; in experiment [9], 1.96 µM; in experiment [10], 2.35 µM. Besides, the TGI came out at 17.3 µM in [1]; 11.3 µM in [2]; 8.15 µM in experiment [3]; 45.5 µM in experiment [4]; 6.58 µM in [5]; 5.32 µM in experiment [6]. Also, the TGI amounted to 3.12 µM in [7], 3.06 µM in experiment [8], 4.49 µM in experiment [9] and 5.34 µM in experiment [10].
For the compound `COc1ccc(-c2cn[nH]c2-c2cc(OC)c3c(c2)OCO3)cc1`, the GI50 in experiment [1] was 0.417 µM; in [2], 0.402 µM; in experiment [3] it was 0.984 µM; in [4] it was 2.15 µM; in experiment [5], 0.0267 µM; in experiment [6], 2.26 µM. For the same compound, the GI50 was 0.176 µM in [7], 0.669 µM in experiment [8], 0.102 µM in experiment [9] and 0.207 µM in experiment [10]. For the same compound, the TGI was 20.8 µM in experiment [1]; 14.9 µM in [2]; 26.7 µM in experiment [3]; 62.9 µM in [4]; 0.0838 µM in experiment [5]; 25.8 µM in experiment [6]. The TGI amounted to 0.684 µM in [7], 23.1 µM in [8], 12.1 µM in experiment [9] and 12.9 µM in experiment [10].
Take `COc1ccc(S(=O)(=O)N2CC(C)(C)CN(S(=O)(=O)c3ccc(OC)cc3)C2C(=O)NO)cc1`: the GI50 is 8.14 µM in [1]; greater than 20 µM in [2]; greater than 20 µM in experiment [3]; greater than 20 µM in experiment [4]; greater than 20 µM in experiment [5]; greater than 20 µM in [6]. The GI50 is greater than 14.2 µM in experiment [7], greater than 11.5 µM in [8], greater than 20 µM in experiment [9] and greater than 20 µM in experiment [10]. The TGI in experiment [1], in [2], in experiment [3], in experiment [4], in experiment [5] and in experiment [6] was greater than 20 µM each time. The TGI in [7], in experiment [8], in [9] and in experiment [10] was greater than 20 µM each time.
